Source: publication PMC9605497, “Potential of Epidermal Growth Factor-like Peptide from the Sea Cucumber Stichopus horrens to Increase the Growth of Human Cells: In Silico Molecular Docking Approach” (Marine Drugs, 2022)
“Also recorded” adds a separate entry of the source.

Test system: EGF/PDGF pathway genes
Assay: qPCR array of EGF/PDGF pathway genes
Format: cell-based, human
Design: key to expression class: +: Maximum expression; −: Minimum expression; unc.: Unchanged
Settings: 10 nM, 4 h; for fold change: vs serum-free medium
Method: Cells were seeded at 80,000 cells per well of 24-well plates in 400 µL of complete growth medium. Cells were grown in MEM basal medium supplemented with 10% FBS and 1% antibiotic–antimycotic in a humidified incubator at 37 °C, equilibrated with 5% CO2. After 24 h of culture, the medium was removed, washed once with PBS, replaced with serum-free medium and left to culture for another 16 h. Medium was removed and replaced with corresponding treatment medium each in triplicates; 10 nM and 50 nM of Sh-EGFl-1, 10 nM and 50 nM of rhEGF were used as a positive control and serum-free medium was used as a negative control. Cells were harvested after 4 h. Medium was removed and 200 μL of Trizol reagent (Thermo Scientific, Waltham, MA, USA) was immediately added.
RNA extraction was performed according to Trizol reagent manufacturer’s protocol. An elution volume of 15 μL RNase-free water was added before the concentration and purity were determined using NanoDrop.
A total of 100 ng RNA was used initially for the cDNA synthesis reaction. The reaction was carried out according to RT^2 First Strand Kit’s protocol (Qiagen, Venlo, Netherlands). Genomic DNA was removed according to the manufacturer’s protocol prior to cDNA strand generation.
The 10 μL cDNA of human skin cells was diluted with 91 μL prior to qPCR reaction. Primer pairs of 84 genes involved in the EGF pathway, five housekeeping genes such as ribosomal protein large, P0 (RPL0), glyceraldehyde-3-phosphate-dehydrogenase (GAPDH), beta-actin (ACTB), beta-2-microglobulin (B2M) and hypoxanthine phosphoribosyltransferase 1 (HPRT1), one positive control gene for genomic DNA contamination, three reverse transcription control genes and three PCR-positive controls were included in the Qiagen PAHS-040ZA qPCR array plate (Qiagen, Venlo, Netherlands). A list of all genes analyzed in this study is available in Supplementary Materials Table S7. The mixture reaction was prepared according to the protocol and run using BioRad CFX96TM. Samples of 10 nM rhEGF and 10 nM Sh-EGFl-1 were prepared in duplicates. The following thermal profile was applied: 1 cycle at 95 °C for 10 min, 40 cycles at 95 °C for 15 s, 60 °C for 1 min, with the ramp rate from 95 °C to 60 °C was set at 1 °C every second. The data were then analyzed through Qiagen web portal. Data for serum-free medium were selected as a control group and the differences in gene expression between control and treatment groups were calculated using the 2^(−delta delta CT) method. The difference, known as fold change, was obtained from the delta delta CT values, which are the genes of interest and the average housekeeping genes, followed by the delta delta CT (delta CT (treatment group)—delta CT (control group)).

[1] = IKBKB (IKK), PLC gamma signaling
[2] = PLCG1 (PLC), PLC gamma signaling
[3] = PPP2CA (TSC2), PLC gamma signaling
[4] = RASA1 (p120GAP), MAPK signaling
[5] = RPS6KA5 (p70S6K), MAPK signaling
[6] = RPS6KA5 (p70S6K), PI3K signaling
[7] = RPS6KA5 (p70S6K), PLC gamma signaling
[8] = RPS6KB1 (p70S6K), MAPK signaling
[9] = RPS6KB1 (p70S6K), PI3K signaling
[10] = RPS6KB1 (p70S6K), PLC gamma signaling

H-NINECFSSPCENQGICQDEIDGYNCVCQPGFTGTHCESSMLNHVI-OH (disulfide) [Sh-EGFl-1, 45 amino acid EGF-like peptide from Stichopus horrens contig 498513, synthesized by Fmoc solid-phase peptide chemistry]
gene expression of individual genes, in words: relatively high expression of MAPK8, MAPK9, MAP2K7, MKK, MAPK1, ELK1 and c-JUN; also recorded: high expression of Src, Ras, Kras and Raf; also recorded: IL-2 is minimally expressed; also recorded: increased expression of the adaptor proteins Shc, Sos and Grb2 | signaling pathways activated (qPCR array): phosphoinositide 3-kinase (PI3K), mitogen-activated protein kinase (MAPK), phospholipase C gamma (PLC-gamma), Janus kinase-signal transducer and activator of transcription (JAK-STAT) and Ras homologous (Rho) pathways; also recorded: PI3K–AKT–GSK3, Ras–Raf–MEK–ERK–MAPK, PLC gamma, STAT and Rho signaling pathways | gene expression profile, EGF/PDGF pathway (qPCR array heat map): upregulation of most genes involved in EGF/PDGF pathways | expression class (AKT1, PI3K signaling): + | fold change (AKT1, PI3K signaling): (0.95) | expression class (AKT3, PI3K signaling): + | fold change (AKT3, PI3K signaling): (1.11) | expression class (ATF1, MAPK signaling): + | expression class (ATF2, MAPK signaling): + | fold change (ATF2, MAPK signaling): (0.89) | expression class (CASP3, MAPK signaling): + | fold change (CASP3, MAPK signaling): (1.05) | expression class (CASP9, MAPK signaling): + | fold change (CASP9, MAPK signaling): (0.93) | expression class (CBL, MAPK signaling): − | fold change (CBL, MAPK signaling): (1.00) | expression class (CCND1, PI3K signaling): − | fold change (CCND1, PI3K signaling): (1.17) | expression class (DUSP1, MAPK signaling): + | fold change (DUSP1, MAPK signaling): (0.97) | expression class (DUSP6, MAPK signaling): + | fold change (DUSP6, MAPK signaling): (1.05) | expression class (E1F4E, PI3K signaling): + | fold change (E1F4E, PI3K signaling): (1.28) | expression class (ELK1, JAK-STAT signaling): + | fold change (ELK1, JAK-STAT signaling): (1.08) | expression class (FOS, JAK-STAT signaling): + | fold change (FOS, JAK-STAT signaling): (1.50) | expression class (GAB1, PI3K signaling): + | fold change (GAB1, PI3K signaling): (1.00) | expression class (GRB2, PI3K signaling): + | fold change (GRB2, PI3K signaling): (1.07) | expression class (GSK3A, PI3K signaling): unc. | fold change (GSK3A, PI3K signaling): (0.87) | expression class (GSK3B, PI3K signaling): + | fold change (GSK3B, PI3K signaling): (1.06) | expression class (HRAS, MAPK signaling): + | fold change (HRAS, MAPK signaling): (0.93) | expression class (IKBKB (IKK), PI3K signaling): + | fold change (IKBKB (IKK), PI3K signaling): (1.06) | expression class [1]: + | fold change [1]: (1.06) | expression class (IKBKB, MAPK signaling): + | expression class (JAK1, JAK-STAT signaling): + | fold change (JAK1, JAK-STAT signaling): (1.02) | expression class (JUN, JAK-STAT signaling): + | fold change (JUN, JAK-STAT signaling): (1.32) | expression class (MAP2K1 (MEK1), MAPK signaling): unc. | fold change (MAP2K1 (MEK1), MAPK signaling): (0.91) | expression class (MAP2K4 (MKK4), MAPK signaling): unc. | fold change (MAP2K4 (MKK4), MAPK signaling): (0.84) | expression class (MAP2K7 (MKK7), MAPK signaling): + | fold change (MAP2K7 (MKK7), MAPK signaling): (1.0) | expression class (MAP3K2 (MEKK2), MAPK signaling): + | fold change (MAP3K2 (MEKK2), MAPK signaling): (1.27) | expression class (MAPK1 (ERK2), MAPK signaling): + | fold change (MAPK1 (ERK2), MAPK signaling): (1.03) | expression class (MAPK3 (ERK1), MAPK signaling): + | fold change (MAPK3 (ERK1), MAPK signaling): (0.98) | expression class (MAPK8, MAPK signaling): + | fold change (MAPK8, MAPK signaling): (0.99) | expression class (MAPK9, MAPK signaling): unc. | fold change (MAPK9, MAPK signaling): (0.80) | expression class (MAPK10, MAPK signaling): − | fold change (MAPK10, MAPK signaling): (0.55) | expression class (MKNK1, MAPK signaling): − | fold change (MKNK1, MAPK signaling): (0.82) | expression class (NFATC3, MAPK signaling): + | fold change (NFATC3, MAPK signaling): (1.22) | expression class (NFKB, PI3K signaling): + | fold change (NFKB, PI3K signaling): (1.02) | expression class (NFKB, PLC gamma signaling): + | fold change (NFKB, PLC gamma signaling): (1.02) | expression class (P13KCA, PI3K signaling): + | fold change (P13KCA, PI3K signaling): (1.47) | expression class (PDPK1 (PDK1), PI3K signaling): unc. | fold change (PDPK1 (PDK1), PI3K signaling): (0.95) | expression class (PIK3R1, PI3K signaling): + | fold change (PIK3R1, PI3K signaling): (0.98) | expression class (PIK3R2, PI3K signaling): + | fold change (PIK3R2, PI3K signaling): (1.17) | expression class [2]: + | fold change [2]: (1.18) | expression class [3]: + | fold change [3]: (0.94) | expression class (PRKCA, PLC gamma signaling): + | fold change (PRKCA, PLC gamma signaling): (1.10) | expression class (RAP1A, MAPK signaling): + | fold change (RAP1A, MAPK signaling): (1.14) | expression class [4]: + | fold change [4]: (1.07) | expression class (RHOA, Rho signaling): + | fold change (RHOA, Rho signaling): (1.08) | expression class [5]: + | fold change [5]: (0.97) | expression class [6]: + | fold change [6]: (0.97) | expression class [7]: + | fold change [7]: (0.97) | expression class [8]: + | fold change [8]: (1.00) | expression class [9]: + | fold change [9]: (1.00) | expression class [10]: + | fold change [10]: (1.00) | expression class (SHC1, MAPK signaling): + | fold change (SHC1, MAPK signaling): (0.94) | expression class (SHC1, PI3K signaling): + | fold change (SHC1, PI3K signaling): (0.94) | expression class (SRC, JAK-STAT signaling): + | fold change (SRC, JAK-STAT signaling): (1.18) | expression class (STAT3, JAK-STAT signaling): + | fold change (STAT3, JAK-STAT signaling): (1.06) | expression class (STAT5, JAK-STAT signaling): + | fold change (STAT5, JAK-STAT signaling): (1.06) | expression class (TP53, MAPK signaling): + | fold change (TP53, MAPK signaling): (0.96) | expression class (TP53, PI3K signaling): + | fold change (TP53, PI3K signaling): (0.96)
